The values below come from patent US20250339569A1, “CARBONIC ANHYDRASE IX LIGANDS” (priority 2021, published 2025).

Data set [1] in a line: Pharmacokinetic characterization in healthy mice. The note with it: male, CD-1, plasma, iv, mouse; for clearance: read-out: Clearance (CL); for half-life: read-out: terminal elimination half-life (converted); for Vd: read-out: volume of distribution (Vd). The format is in vivo, CD-1 mice. How it is done: The pharmacokinetics of DPI-4452 after a single intravenous (i.v.) dose were investigated in healthy mice. […] Plasma and urine samples collected after dosing were analyzed using a LC-HRMS (liquid chromatography coupled with high-resolution mass spectrometry) assay method. Concentration values were used for pharmacokinetic calculations.
Male CD-1 mice (3 animals per time point and per dose level; overall, 28.2-37.6 g body weight) were administered intravenously in the tail vein in a 2 mL/kg dosing volume. Blood samples were collected in K2EDTA tubes at 5 min, 15 min, 30 min, 1 h, 2 h, 4 h, 8 h, and urine was collected over 8 hours post dose. The blood samples were kept on wet ice until plasma separation by centrifugation at room temperature; 10 min; 2500 G, which was performed within 60 min after sampling. The plasma samples were transferred into plastic tubes, frozen and stored at −80° C. until analysis.
Plasma and urine samples were analyzed by LC-HRMS after solid phase extraction, using a stable isotope-labeled internal standard (^13C6, ^15N-DPI-4452). Chromatographic separation was run on a Waters Acquity HSS T3 C18 2.1×50 mm, 1.8 μm column. Detection was achieved on a Sciex API6600 TOF mass spectrometer. The lower limit of quantification was 1.00 ng/mL in plasma and urine.
The non-compartmental (NCA) pharmacokinetic analysis of plasma concentration data was conducted using Phoenix 64 WinNonlin (Build 8.3.3.33) software. Nominal doses were used for all animals. The terminal phase half-life (T1/2) was calculated by least-squares regression analysis of the terminal linear part of the log concentration-time curve. The area under the plasma concentration-time curve (AUC) was determined with the linear trapezoidal rule for increasing values and log trapezoidal rule for decreasing values up to the last measurable concentration.

The target in data set [2] is T1, human CAIX (Homo sapiens, UniProt Q16790). Nature of the data set: In vitro SPR binding assay of DPI-4452, natLu-DPI-4452 and natGa-DPI-4452 to CAIX (anti-human Fc capture). Also on record: purchased SinoBliological (Sino Biological) 10107-H02H. In general terms: In SPR one partner is held on a chip, and binding of the other changes the refractive index at the surface.
Experimental: Surface Plasmon Resonance (SPR) studies were performed on a Biacore™ T200 using a ligand capture approach. Basically, anti-human Fc antibodies were immobilized on the surface of a sensor chip and CAIX was captured on the functionalized surface via its Fc Tag.
Then, each compound was injected at increasing concentrations on the captured CAIX in order to measure the in real-time interaction of the compound to its target (i.e. the captured CAIX). The in real-time monitoring of the association and dissociation of the interaction gives access to the interaction kinetics parameters (i.e. the association and dissociation rate constants and the resulting affinity constants).
• A series S CM5 sensor chip was used (Cytiva). • All reagents used for the immobilization procedure were part of the Amine Coupling Kit, type 2 and/or the Human Antibody Capture Kit (Cytiva). The running buffer (HBS-EP+) was prepared by 10-fold dilution of the stock HBS-EP+ 10× solution (Cytiva). • Anti-human Fc antibodies stock solution (0.5 mg/mL in 0.15 M NaCl) was diluted in 10 mM sodium acetate pH 5.0 to a final concentration of 25 μg/mL directly into a plastic vial 7 mm. • Amine coupling reagents were transferred into plastic vials 7 mm as follow: • 95 μL of 0.4 M 1-ethyl-3-(3-dimethylaminopropyl)carbodiimide (EDC). • 95 μL of 0.1 M N-hydroxysuccinimide (NHS). • An empty plastic vial 7 mm was added in the Biacore™ sample rack for mixing. • 150 μL of 1 M ethamolamine-HCl, pH 8.5. • Plastic vials were closed with rubber caps and the sample rack was inserted into the Biacore™ T200 sample compartment. • The Biacore™ T200 Amine Wizard was used to immobilize the anti-Human Fc antibodies on the four flow-cells of a series S CM5 sensor chip simultaneously with defined contact time of 360 seconds and flow-rate of 5 μL/min. • The immobilization procedure was performed at 25° C., following Cytiva's recommendations, as described in Table 23.
This procedure allowed to reach immobilization levels between 6000 and 9000 RU of anti-human Fc antibodies on the sensor chip surface.
• CAIX (Sino Biological, 10107-H02H) stock solution was prepared from lyophilized material reconstituted with deionized water to a concentration of 0.25 μg/mL (3.69 μM), following the supplier recommendations. • CAIX working solution was obtained after dilution of CAIX stock solution with PBS-P+1×, 0.1% DMSO to a final concentration of 200 nM directly in a Biacore™ plastic vial.
• For each measurement, the raw surface plasmon resonance response (RU) was plotted against time (s) as a sensorgram using the Biacore™ T200 Control Software. • Raw data were corrected by double referencing with subtraction of the signal of both the reference flow-cell and the blank cycle. • The association and dissociation rate constants (ka and kd, respectively), as well as the dissociation constant KD and dissociation half-life t1/2 were determined from the corrected sensorgrams by fitting the data to a 1:1 Langmuir binding model with the Biacore™ T200 evaluation software.

For data set [3], the target named is T1, human CAIX. Briefly: Radioligand saturation binding and equilibration on CHO-huCAIX. Also on record: host or cells: CHO-VGT / CHO cells. How it is done: After attainment of equilibrium, the cells were harvested, and the bound fraction of the compounds was measured. The resulting saturation binding data were analyzed using Graph Pad Prism 8.3.
CHO cells transfected with human, dog, and mouse CAIX (CHO-huCA9 T04J-1/20 K1, CHO-dogCA9 T05J-9/20 K4, CHO-murCA9 T05J-3/20 K4) were obtained from InSCREENex (Germany).
A molar excess of 3BP-3565 was used as a blocking peptide to assess non-specific binding in autoradiographic studies. 3BP-3565 binds with a similar affinity to CAIX and blocks binding sites of test compounds. For the blocking solution, a 10 mM stock solution of 3BP-3565 was prepared by dissolution in DMSO.
CHO cells were maintained in Ham's medium supplemented with 10% fetal bovine serum, 2 mM L-glutamine, 100 U/mL Penicillin and 0.1 mg/mL streptomycin under standard cell culture conditions. The cells were grown in uncoated cell culture flasks (150 cm^2, Biochrom) to subconfluence and then split 1:2-1:3. Approximately 24 hours before the assay, cells were detached by incubation with Accutase and carefully tapping the flasks. Detached cells were resuspended in medium and collected by centrifugation (300 g, 5 min, RT). Cell pellets were resuspended in cell culture medium and counted using a particle counter (CASY Model TT, Scharfe Systems, Germany). Cell concentrations were adjusted to 3×10^5 mL^−1, and 1.000 μL per well of the suspension were dispensed into poly-D-lysine-coated flat-clear-bottom 24 well plates.
Compound radiolabeling was performed as follows. […] Then, 25 mg/mL methionine in 1 M sodium acetate buffer pH 5 was added at a final concentration of 0.1 M sodium acetate. Subsequently, the mixture was heated to 80° C. for 25 min, followed by cooling for 5 minutes. Finally, 20 μL of 200 mg/mL ascorbic acid solution, 2.5 μL of 5 mg/mL DTPA and 2.5 μL of 5% TWEEN-20 per 100 μL reaction mixture were added, resulting in the concentrated study solution. For quality control, an aliquot of the labeling solution was diluted 1:40 with 0.1% TWEEN-20 in 0.1 M sodium acetate buffer pH 5. Five microliters of the diluted labeling solution were injected onto a Poroshell SB-C18 2.1×50 mm, 2.7 μm column. HPLC analysis was performed as follows: Gradient A: H2O, 0.1% TFA, Gradient B: Acetonitrile (MeCN), gradient from 5% B to 70% B within 15 min, flow rate of 0.5 mL/min; detector: NaI, DAD 215 nm. The peak eluting with the dead volume represents free radionuclide, the peak eluting with the ligand-specific retention time as determined with a non-labeled sample represents the radiolabeled compound.
The assessment of the time needed until attainment of equilibration on CHO-huCAIX and CHO-dgCAIX was performed as follows. The 10 mM 3BP-3565 stock solution was diluted with assay medium (Ham's medium without additives) to prepare an 8-μM blocking working solution. The radiolabeling mixtures were diluted with assay medium to prepare 160 nM radioligand working solutions. Subsequently, 1.6 and 3.2 nM radioligand dilutions were prepared by diluting the radioligand working solutions 1:100 and 1:50, respectively, with assay medium. Approximately 24 hours after re-seeding (3×10^5 mL^−1 cells per well), the medium was aspirated, and the cells were washed once with assay medium (700 μL). To determine total binding, 700 μL of binding medium and 100 μL of the radioligand dilutions were added to the wells in triplicates.
To determine non-specific binding, 600 μL of binding medium, 100 μL of the […] 3BP-3565 blocking solution and 100 μL of the radioligand dilutions were added to the wells in triplicates. The plates were incubated for 1 h, 3 h, 6 h, and 8 h at 37° C. under standard cell culture conditions (5% CO2). At the end of the incubation time, the plates were placed on ice while aspirating the radioligand solutions. Subsequently, the cells were washed with ice-cold PBS (0.5 mL, 1 mL, 1 mL). […]

SMILES strings stand for the structures. pKd: −log10 of the molar value. Like-named read-outs stand apart in the source and are kept apart here.

Regarding `CC(C)C[C@@H]1NC(=O)[C@H](Cc2cccc(NC(=O)CCCS(N)(=O)=O)c2)NC(=O)[C@H](CC(=O)O)NC(=O)[C@H]2CCCN2C(=O)[C@H](CCC(=O)O)NC(=O)[C@@H](NC(=O)[C@H](CCC(N)=O)NC(=O)CN2CCN(C(=O)CN3CCN(CC(=O)O)CCN(CC(=O)O)CCN(CC(=O)O)CC3)CC2)CSCc2cccc(c2)CSC[C@@H](C(N)=O)NC(=O)[C@H](CO)NC(=O)[C@H](Cc2c[nH]c3ccccc23)NC(=O)[C@H]([C@@H](C)O)NC1=O` [DPI-4452, DOTA-PPAc-Gln-[Cys(3MeBn)-Glu-pro-Asp-Af3(Cpsu)-Leu-Thr-Trp-Ser-Cys]-NH2], in data set [1] (i.v. 0.7 mg/kg), the AUC(0-inf) (as a rule, total exposure, with the tail of the curve extrapolated) was determined as 424 ng·h/mL; the clearance (commonly a measure of how efficiently the substance is removed, as volume per time) was determined as 27.5 mL/min/kg; the half-life (as a rule, the time needed for the level to fall by half in the phase considered) is 16.8 min; the Vd (usually a proportionality between amount in the body and measured concentration, not a real space) was 0.408 L/kg. Also, in data set [1] (i.v. 5.5 mg/kg), the AUC(0-inf) worked out at 2820 ng·h/mL, the clearance was found to be 32.5 mL/min/kg, the half-life was 27.9 min and the Vd turned out to be 0.455 L/kg. The “affinity of binding to CAIX” value at human CAIX [2] (SPR) is given as “subnanomolar affinity”. Also, on human CAIX [2] (SPR dissociation half-life), the t1/2 amounted to 99 min. This molecule yielded a mean dissociation half-life on human CAIX [2] (SPR, 25°C) of 99 min.
In the case of `CC(C)C[C@@H]1NC(=O)[C@H](Cc2cccc(NC(=O)CCCS(N)(=O)=O)c2)NC(=O)[C@H](CC(=O)O)NC(=O)[C@H]2CCCN2C(=O)[C@H](CCC(=O)O)NC(=O)[C@@H](NC(=O)[C@H](CCC(N)=O)NC(=O)CN2CCN(C(=O)CN3CCN(CC(=O)O)CCN(CC(=O)O)CCN(CC(=O)O)CC3)CC2)CSCc2cccc(c2)CSC[C@@H](C(N)=O)NC(=O)[C@H](CO)NC(=O)[C@H](Cc2c[nH]c3ccccc23)NC(=O)[C@H]([C@@H](C)O)NC1=O` [[^111In]In-DPI-4452, metal not drawn], the pKd – broadly, −log10 of the Kd, conventionally taken in molar units – on human CAIX [3] (Mean pKd ± SD, CHO-huCAIX) was 9.50; at human CAIX [3] (pKd, CHO-huCAIX, first independent experiment), 9.70; on human CAIX [3] (pKd, CHO-huCAIX, second independent experiment), 9.30; on human CAIX [3] (pKd, human CAIX expressed in CHO cells, 8 h at 37°C), at least 9.00.
